In the oligonucleotide strings, read from the 5' end, every base follows the letter of its sugar. An asterisk marks phosphorothioate; unmarked linkages are phosphodiester. Other units and linkages are bracketed, terminal groups are in braces. A string of capitals states the bases alone. e = 2'-O-(2-methoxyethyl) (MOE); [5mC] = 5-methylcytosine; d = 2'-deoxy (DNA)
Test system: HeLa cells
Experiment: Cell cycle assay in HeLa cells
Format: cell-based, human
Conditions: for phase of the cell cycle in which cells arrest or delay / chromosome missegregation (subG1 or aneuploid DNA content): HeLa; for % cells aneuploid / % cells in cell cycle phase G1 / % cells in cell cycle phase G2/M / % cells in cell cycle phase S / % cells in cell cycle phase subG1 / % cells in cell cycle phase: G1 / % cells in cell cycle phase: G2/M / % cells in cell cycle phase: S / % cells in cell cycle phase: aneuploid / % cells in cell cycle phase: subG1 / % cells in cell cycle phase aneuploid: HeLa cells; for % cells in cell cycle phase: G1 / % cells in cell cycle phase: G2/M / % cells in cell cycle phase: S / % cells in cell cycle phase: aneuploid / % cells in cell cycle phase: subG1: 48 hours after treatment, relative to untreated control (UTC=100); for chromosome missegregation (subG1 or aneuploid DNA content): 24-hour and 48-hour timepoints
Method: In some embodiments, HeLa cells were plated on collagen-coated 24-well plates at 50,000-60,000 cells per well, and allowed to attach to wells overnight. In some embodiments, HeLa cells were synchronized by double thymidine block (cells were washed three times with PBS, then grown in 10% FBS containing 2 mM thymidine; then 19 hours later, cells were washed three times in PBS, 10% FBS for 9 hours; cells were then incubated in 10% FBS, 2 mM thymidine for 15 hours; then washed three times with PBS, 10% FBS and samples were taken every two hours over a 16 hour period). A portion of each time sample was fixed with ethanol and treated with propidium iodide and subjected to FACs analysis for determination of the percentage of cells in each phase of the cell cycle. […] HeLa cells treated with 10 μM cisplatin or 100 ng/ml nocodazole were used as controls for G1-phase and late G2/M-phases, respectively. From the remaining portion of each of these time samples, total RNA was isolated and used to assess the expression of cell cycle marker mRNAs using the real-time RT-PCR methods and/or used to screen microarrays to assess the expression of miRNAs over the course of the cell cycle. It was observed that several miRNAs are expressed in a cell-cycle-dependent manner. Shown in Table 30 are the mRNA levels of the E2F1 transcription factor and topoisomerase 2A (Top2A), which vary over the course of the cell cycle and can be used for comparison to the experimental groups for the confirmation of cell cycle phase. Data are an average of three trials.
In some embodiments, HeLa cells were also treated with oligomeric compounds targeting miRNAs. […] The medium was removed from the plates. Each well was washed in 250 μl of PBS. […] Control cells received LIPOFECTIN™ only. […] After 24 hours (Table 31) or 48 hours (Table 32), cells were prepared for flow cytometry analysis to generate a cell cycle profile. The cell cycle profile was analyzed with the ModFit program (Verity Software House, Inc., Topsham Me.).
The random-mer ISIS 29848 (SEQ ID NO: 737) was used as a negative control, and ISIS 183891 (SEQ ID NO: 847), targeting kinesin-like 1/Eg5, was included as a positive control. Data are expressed as percentage of cells in each phase relative to the untreated control (UTC); values above 100 are considered to indicate a delay or arrest in that phase of the cell cycle. […] In some cases, the same oligomeric compound was tested in repeated experiments.
In accordance with the present invention, certain oligomeric compounds targeting miRNAs were selected for dose response studies. Using the cell cycle assay described above, the cell cycle profiles of HeLa or A549 cells treated with varying concentrations of oligomeric compounds of the present invention were assessed.
HeLa cells were treated with 25-, 50-, 100- or 150 nM of the oligomeric compounds ISIS
Numbers 327902 (SEQ ID NO: 320) and 328383 (SEQ ID NO: 492), both targeted against mir-192, and ISIS 327905 (SEQ ID NO: 323), targeting mir-205, and ISIS 328403 (SEQ ID NO: 512), targeting mir-106. Cells treated with increasing concentrations of oligomeric compounds were compared to untreated cells, to assess the dose-dependency of the observed delay or arrest. The random-mer ISIS 29848 was used as a negative control. Cells were prepared for flow cytometry 48-hours after oligonucleotide treatment, as described, supra.

[1] = 150 nM oligomeric compound, 24 hours, relative to untreated control (UTC = 100)
[2] = 150 nM, 48 hours, relative to untreated control

| Substance | % cells aneuploid [1] | % cells in cell cycle phase G1 [1] | % cells in cell cycle phase G2/M [1] | % cells in cell cycle phase S [1] | % cells in cell cycle phase subG1 [1] | % cells in cell cycle phase: G1 (150 nM oligomeric compound) | % cells in cell cycle phase: G2/M (150 nM oligomeric compound) | % cells in cell cycle phase: S (150 nM oligomeric compound) | % cells in cell cycle phase: aneuploid (150 nM oligomeric compound) | % cells in cell cycle phase: subG1 (150 nM oligomeric compound) | further results |
| --- | --- | --- | --- | --- | --- | --- | --- | --- | --- | --- | --- |
| ISIS 328707: SEQ ID NO: 616, targeting miR-100-1 (eG*e[5mC]*eA*eA*e[5mC]*dA*dG*dG*d[5mC]*d[5mC]*dT*d[5mC]*dA*dA*dT*eA*eT*e[5mC]*eT*eT) |  |  |  |  |  |  |  |  |  |  | phase of the cell cycle in which cells arrest or delay (150 nM, both 24 and 48 hours): G2/M-phase |
| 328780 (antisense eT*eG*eT*e[5mC]*eA*dT*dG*dG*dA*d[5mC]*dA*dG*dG*dA*dT*eG*eA*eA*eT*eA) [compound 328780] | 149% | 96% | 136% | 87% | 124% | 83% | 110% | 130% | 133% | 917% |  |
| GCCAAGGCGTGACATGATAT (chemistry not given here) [ISIS 25691, 5-10-5 2′-MOE gapmer PS targeted to Drosha RNase III mRNA] |  |  |  |  |  |  |  |  |  |  | phase of the cell cycle in which cells arrest or delay (150 nM, 48 hours): increased percentage of cells in S-phase as well as a significant percentage of cells in the subG1 and aneuploid categories |
| ISIS 328759: SEQ ID NO: 668, targeted to mir-216 (eG*eA*eG*eG*eG*dA*dT*dT*dG*dT*dA*dT*dG*dA*dA*e[5mC]*eA*eT*e[5mC]*eT) |  |  |  |  |  |  |  |  |  |  | chromosome missegregation (subG1 or aneuploid DNA content) (150 nM): induce chromosome missegregation events; phase of the cell cycle in which cells arrest or delay (150 nM, 48 hours): delay or arrest resulted in the G2/M-phase; phase of the cell cycle in which cells arrest or delay (150 nM, both 24 and 48 hours): G2/M-phase |
| ISIS 341787: SEQ ID NO: 852, targeted against mir-125a (mouse) (CACAGGTTAAAGGGTCTCAGGGA; all 2'-MOE, all phosphorothioate, methylation of C not given here) |  |  |  |  |  |  |  |  |  |  | phase of the cell cycle in which cells arrest or delay (150 nM, 48 hours): arrest or delay in G2/M as well as an increased percentage of cells in the subG1 and aneuploid categories |
| 341785 (antisense GGAGTGAAGACACGGAGCCAGA; all 2'-MOE, all phosphorothioate, methylation of C not given here) [compound 341785] | 158% | 152% | 53% | 92% | 125% | 82% | 116% | 126% | 166% | 1148% |  |
| ISIS 338797: SEQ ID NO: 624, targeted to hypothetical miRNA-144 (CTGGGGAGGGGGTTAGCGTC; all 2'-MOE, all phosphorothioate, methylation of C not given here) |  |  |  |  |  |  |  |  |  |  | chromosome missegregation (subG1 or aneuploid DNA content) (150 nM): induce chromosome missegregation events |
| 338826 (antisense CGGATCCTGTTACCTCACCA; all 2'-MOE, all phosphorothioate, methylation of C not given here) [compound 338826] | 138% | 148% | 90% | 79% | 145% | 61% | 182% | 124% | 137% | 696% |  |
| 338756 (antisense TGCCCTGCTCAGAGCCCTAG; all 2'-MOE, all phosphorothioate, methylation of C not given here) [compound 338756] | 166% | 147% | 99% | 75% | 137% | 90% | 100% | 121% | 169% | 311% |  |
| GGTACAATCAACGGTCGATGGT (anti-miR; chemistry not fully specified) [ISIS 327934, uniform 2′-MOE PS; targets mir-213] |  |  |  |  |  |  |  |  |  |  | phase of the cell cycle in which cells arrest or delay (150 nM, 48 hours): G2/M- and S-phases |
| ISIS 338678: SEQ ID NO: 505, targeted to the mir-205 pri-miRNA (CTGGTTGGGTATGAGACAGA; all 2'-MOE, all phosphorothioate, methylation of C not given here) |  |  |  |  |  |  |  |  |  |  | phase of the cell cycle in which cells arrest or delay (150 nM, time point not stated): G2/M-phase |
| 338833 (antisense TCGTGCACCTGAGGAGTCTG; all 2'-MOE, all phosphorothioate, methylation of C not given here) [compound 338833] | 185% | 150% | 142% | 56% | 232% | 44% | 258% | 106% | 154% | 1091% | % cells in cell cycle phase G1 [2]: 87%; % cells in cell cycle phase G2/M [2]: 136%; % cells in cell cycle phase S [2]: 100%; % cells in cell cycle phase aneuploid [2]: 136%; % cells in cell cycle phase subG1 [2]: 255% |
| 328727 (antisense e[5mC]*eT*eG*e[5mC]*eT*d[5mC]*d[5mC]*dA*dG*dA*dG*d[5mC]*d[5mC]*d[5mC]*dG*eA*eG*eT*e[5mC]*eG) [compound 328727] | 161% | 133% | 105% | 81% | 245% | 68% | 124% | 152% | 140% | 846% |  |
| 338797 (antisense CTGGGGAGGGGGTTAGCGTC; all 2'-MOE, all phosphorothioate, methylation of C not given here) [compound 338797] | 193% | 101% | 148% | 79% | 197% | 66% | 168% | 124% | 175% | 813% | % cells in cell cycle phase G1 [2]: 104%; % cells in cell cycle phase G2/M [2]: 115%; % cells in cell cycle phase S [2]: 89%; % cells in cell cycle phase aneuploid [2]: 125%; % cells in cell cycle phase subG1 [2]: 144% |
